Reference: patent US20220251116A1, “ALKYLBORONIC ACIDS AS ARGINASE INHIBITORS” (Guangdong Newopp Biopharmaceuticals Co., Ltd., priority 2019, published 2022)
Where a name gives a salt, the structure may show the parent alone.

Molecular target: T1, recombinant human arginase 1 (Homo sapiens, UniProt P05089)
T1 sequence (P05089 1-322): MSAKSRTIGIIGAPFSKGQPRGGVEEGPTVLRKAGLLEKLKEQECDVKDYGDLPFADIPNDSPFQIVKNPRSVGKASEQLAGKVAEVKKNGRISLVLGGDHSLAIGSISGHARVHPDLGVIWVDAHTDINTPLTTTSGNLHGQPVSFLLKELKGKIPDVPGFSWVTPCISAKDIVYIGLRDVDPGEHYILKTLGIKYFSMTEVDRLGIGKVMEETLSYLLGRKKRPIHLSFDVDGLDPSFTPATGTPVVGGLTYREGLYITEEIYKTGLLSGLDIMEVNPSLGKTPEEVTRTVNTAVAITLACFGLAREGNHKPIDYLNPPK
Experiment: Arginase inhibitory activity test, enzymatic assay based on urea measurement (Arg 1);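 further: enzyme incubated with L-arginine substrate and compound at 37 °C for 120 min, urea product detected colorimetrically by absorbance at 450 nm, background from wells lacking enzyme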
Experimental: An enzymatic assay with recombinant human arginases 1 or 2 was used to measure inhibitory activity of the compounds. The assay is based on urea measurement, which is a product of L-arginine enzymatic degradation.
Briefly, arginase and the substrate solution containing L-arginine were incubated in the absence or presence of varying concentrations of compounds at 37° C. for 120 min. For the background correction, only the substrate solution was added without arginase. The urea detection reagent from QuantiChrome™ Urea assay kit (BioAssay Systems, CA) was added to develop the color product. After 60 min at room temperature, the absorbance was measured at 450 nm with CLARIOstar (BMG LABTECH). Urea was used as the standard.

| SMILES | IC50 [nM] |
| --- | --- |
| CN(C)CCN(C)S(=O)(=O)N1C[C@H](CCCB(O)O)[C@](N)(C(=O)O)C1 (racemic) [Example 45, (racemic)-trans-3-amino-4-(3-boronopropyl)-1-(N-(2-(dimethylamino)ethyl)-N-methylsulfamoyl)pyrrolidine-3-carboxylic acid, 2,2,2-trifluoroacetic acid salt (1:2)] | 100 to 1000 |
| CNCCNS(=O)(=O)N1C[C@H](CCCB(O)O)[C@](N)(C(=O)O)C1 (racemic) [Example 46, (racemic)-trans-3-amino-4-(3-boronopropyl)-1-(N-(2-(methylamino)ethyl)sulfamoyl)pyrrolidine-3-carboxylic acid, 2,2,2-trifluoroacetic acid salt (1:2)] | 100 to 1000 |
| CNCCN(C)S(=O)(=O)N1C[C@H](CCCB(O)O)[C@](N)(C(=O)O)C1 (racemic) [Example 47, (racemic)-trans-3-amino-4-(3-boronopropyl)-1-(N-methyl-N-(2-(methylamino)ethyl)sulfamoyl)pyrrolidine-3-carboxylic acid, 2,2,2-trifluoroacetic acid salt (1:2)] | < 100 |
| CC(C)(N)C(C)(C)NS(=O)(=O)N1C[C@H](CCCB(O)O)[C@](N)(C(=O)O)C1 (racemic) [Example 50, (racemic)-trans-3-amino-1-(N-(3-amino-2,3-dimethylbutan-2-yl)sulfamoyl)-4-(3-boronopropyl)pyrrolidine-3-carboxylic acid, 2,2,2-trifluoroacetic acid salt (1:2)] | 100 to 1000 |
| N=C(N)NC(=O)N1C[C@H](CCCB(O)O)[C@](N)(C(=O)O)C1 (racemic) [Example 51, (racemic)-trans-3-amino-4-(3-boronopropyl)-1-(carbamimidoylcarbamoyl)pyrrolidine-3-carboxylic acid, 2,2,2-trifluoroacetic acid salt (1:2)] | 100 to 1000 |
| CCN(C1CNC1)S(=O)(=O)N1C[C@H](CCCB(O)O)[C@](N)(C(=O)O)C1 (racemic) [Example 52, (racemic)-trans-3-amino-1-(N-(azetidin-3-yl)-N-ethylsulfamoyl)-4-(3-boronopropyl)pyrrolidine-3-carboxylic acid 2,2,2-trifluoroacetic acid salt (1:2)] | < 100 |
| NC(=O)NS(=O)(=O)N1C[C@H](CCCB(O)O)[C@](N)(C(=O)O)C1 (racemic) [Example 53, (racemic)-trans-3-amino-4-(3-boronopropyl)-1-(N-carbamoylsulfamoyl)pyrrolidine-3-carboxylic acid 2,2,2-trifluoroacetic acid salt (1:2)] | 1000 to 10000 |
| N=C(N)NCCNS(=O)(=O)N1C[C@H](CCCB(O)O)[C@](N)(C(=O)O)C1 (racemic) [Example 54, (racemic)-trans-3-amino-4-(3-boronopropyl)-1-(N-(2-guanidinoethyl)sulfamoyl)pyrrolidine-3-carboxylic acid, 2,2,2-trifluoroacetic acid salt (1:2)] | 100 to 1000 |
| COC(=O)[C@@H](N)CNS(=O)(=O)N1C[C@H](CCCB(O)O)[C@](N)(C(=O)O)C1 (racemic) [Example 55] | < 100 |
| N[C@@H](CNS(=O)(=O)N1C[C@H](CCCB(O)O)[C@](N)(C(=O)O)C1)C(=O)O (racemic) [Example 56] | 100 to 1000 |
| N[C@H]1CC1NS(=O)(=O)N1C[C@H](CCCB(O)O)[C@](N)(C(=O)O)C1 (relative stereo) [Example 40, (3R,4S)-3-amino-1-(N-((cis)-2-aminocyclopropyl)sulfamoyl)-4-(3-boronopropyl)pyrrolidine-3-carboxylic acid, 2,2,2-trifluoroacetic acid salt (1:2)] | 100 to 1000 |
| CN(CCN)S(=O)(=O)N1C[C@H](CCCB(O)O)[C@](N)(C(=O)O)C1 [Example 27, (3R,4S)-3-amino-1-(N-(2-aminoethyl)-N-methylsulfamoyl)-4-(3-boronopropyl)pyrrolidine-3-carboxylic acid, 2,2,2-trifluoroacetic acid salt (1:2)] | < 100 |
| NCCNc1c(N2C[C@H](CCCB(O)O)[C@](N)(C(=O)O)C2)c(=O)c1=O [Example 28, (3R,4S)-3-amino-1-(2-((2-aminoethyl)amino)-3,4-dioxocyclobut-1-en-1-yl)-4-(3-boronopropyl)pyrrolidine-3-carboxylic acid, 2,2,2-trifluoroacetic acid salt (1:2)] | < 100 |
| CN(CCN)c1c(N2C[C@H](CCCB(O)O)[C@](N)(C(=O)O)C2)c(=O)c1=O [Example 29, (3R,4S)-3-amino-1-(2-((2-aminoethyl)(methyl)amino)-3,4-dioxocyclobut-1-en-1-yl)-4-(3-boronopropyl)pyrrolidine-3-carboxylic acid, 2,2,2-trifluoroacetic acid salt (1:2)] | < 100 |
| CC(C)N(C1CNC1)S(=O)(=O)N1C[C@H](CCCB(O)O)[C@](N)(C(=O)O)C1 [Example 57, (3R,4S)-3-amino-1-(N-(azetidin-3-yl)-N-isopropylsulfamoyl)-4-(3-boronopropyl)pyrrolidine-3-carboxylic acid, 2,2,2-trifluoroacetic acid salt (1:2)] | < 100 |
| CC(NS(=O)(=O)N1C[C@H](CCCB(O)O)[C@](N)(C(=O)O)C1)C1(N)CC1 (stereo partly drawn) [Example 58, (3R,4S)-3-amino-1-(N-(1-(1-aminocyclopropyl)ethyl)sulfamoyl)-4-(3-boronopropyl)pyrrolidine-3-carboxylic acid, 2,2,2-trifluoroacetic acid salt (1:2)] | 100 to 1000 |

The next lines start with the values.

| IC50 [nM] | SMILES |
| --- | --- |
| < 100 | CCCN(C1CNC1)S(=O)(=O)N1C[C@H](CCCB(O)O)[C@](N)(C(=O)O)C1 [Example 59, (3R,4S)-3-amino-1-(N-(azetidin-3-yl)-N-propylsulfamoyl)-4-(3-boronopropyl)pyrrolidine-3-carboxylic acid, 2,2,2-trifluoroacetic acid salt (1:2)] |
| < 100 | CC(C)CN(C1CNC1)S(=O)(=O)N1C[C@H](CCCB(O)O)[C@](N)(C(=O)O)C1 [Example 60, (3R,4S)-3-amino-1-(N-(azetidin-3-yl)-N-isobutylsulfamoyl)-4-(3-boronopropyl)pyrrolidine-3-carboxylic acid, 2,2,2-trifluoroacetic acid salt (1:2)] |
| < 100 | CCCCN(C1CNC1)S(=O)(=O)N1C[C@H](CCCB(O)O)[C@](N)(C(=O)O)C1 [Example 61, (3R,4S)-3-amino-1-(N-(azetidin-3-yl)-N-butylsulfamoyl)-4-(3-boronopropyl)pyrrolidine-3-carboxylic acid, 2,2,2-trifluoroacetic acid salt (1:2)] |
| < 100 | N[C@@]1(C(=O)O)CN(S(=O)(=O)N(Cc2ccccc2)C2CNC2)C[C@@H]1CCCB(O)O [Example 62, (3R,4S)-3-amino-1-(N-(azetidin-3-yl)-N-benzylsulfamoyl)-4-(3-boronopropyl)pyrrolidine-3-carboxylic acid, 2,2,2-trifluoroacetic acid salt (1:2)] |
| < 100 | N[C@@]1(C(=O)O)CN(S(=O)(=O)N(CC2CC2)C2CNC2)C[C@@H]1CCCB(O)O [Example 63, (3R,4S)-3-amino-1-(N-(azetidin-3-yl)-N-(cyclopropylmethyl)sulfamoyl)-4-(3-boronopropyl)pyrrolidine-3-carboxylic acid, 2,2,2-trifluoroacetic acid salt (1:2)] |
| < 100 | N[C@@]1(C(=O)O)CN(S(=O)(=O)N(c2ccccc2)C2CNC2)C[C@@H]1CCCB(O)O [Example 64, (3R,4S)-3-amino-1-(N-(azetidin-3-yl)-N-phenylsulfamoyl)-4-(3-boronopropyl)pyrrolidine-3-carboxylic acid, 2,2,2-trifluoroacetic acid salt (1:2)] |
| 1000 to 10000 | CCN(CC1(N)CC1)S(=O)(=O)N1C[C@H](CCCB(O)O)[C@](N)(C(=O)O)C1 [Example 65, (3R,4S)-3-amino-1-(N-((1-aminocyclopropyl)methyl)-N-ethylsulfamoyl)-4-(3-boronopropyl)pyrrolidine-3-carboxylic acid, 2,2,2-trifluoroacetic acid salt (1:2)] |
| < 100 | N[C@@]1(C(=O)O)CN(S(=O)(=O)N(CC(F)(F)F)C2CNC2)C[C@@H]1CCCB(O)O [Example 66, (3R,4S)-3-amino-1-(N-(azetidin-3-yl)-N-(2,2,2-trifluoroethyl)sulfamoyl)-4-(3-boronopropyl)pyrrolidine-3-carboxylic acid, 2,2,2-trifluoroacetic acid salt (1:2)] |
| < 100 | NCCN(CC1CC1)S(=O)(=O)N1C[C@H](CCCB(O)O)[C@](N)(C(=O)O)C1 [Example 67, (3R,4S)-3-amino-1-(N-(2-aminoethyl)-N-(cyclopropylmethyl)sulfamoyl)-4-(3-boronopropyl)pyrrolidine-3-carboxylic acid, 2,2,2-trifluoroacetic acid salt (1:2)] |
| < 100 | NC1(CN(CC2CC2)S(=O)(=O)N2C[C@H](CCCB(O)O)[C@](N)(C(=O)O)C2)CC1 [Example 68, (3R,4S)-3-amino-1-(N-((1-aminocyclopropyl)methyl)-N-(cyclopropylmethyl)sulfamoyl)-4-(3-boronopropyl)pyrrolidine-3-carboxylic acid, 2,2,2-trifluoroacetic acid salt (1:2)] |
| < 100 | NC1CC1N(CC1CC1)S(=O)(=O)N1C[C@H](CCCB(O)O)[C@](N)(C(=O)O)C1 (stereo partly drawn) [Example 69, (3R,4S)-3-amino-1-(trans-N-(2-aminocyclopropyl)-N-(cyclopropylmethyl)sulfamoyl)-4-(3-boronopropyl)pyrrolidine-3-carboxylic acid, 2,2,2-trifluoroacetic acid salt (1:2)] |
| < 100 | N[C@@]1(C(=O)O)CN(S(=O)(=O)N(CC2CC2)[C@@H]2CCNC2)C[C@@H]1CCCB(O)O [Example 70, (3R,4S)-3-amino-4-(3-boronopropyl)-1-(N-(cyclopropylmethyl)-N-((R)-pyrrolidin-3-yl)sulfamoyl)pyrrolidine-3-carboxylic acid, 2,2,2-trifluoroacetic acid salt (1:2)] |
